Like-named read-outs stand apart in the source and are kept apart here.
How the values were obtained:
HIV-1 = settings: cited from earlier work
[1] = Cohort 3: 16 week study of HIV negative subjects on daily PrEP, TFV in plasma and urine (LC-MS/MS); assay type: in vivo, human; settings: Cohort 3, daily PrEP
Experimental: (§1) 3 cohort studies were conducted to assess a system for detection of the active metabolite tenofovir (TFV) of the prodrug nucleotide reverse transcriptase inhibitor (NRTI) tenofovir disoproxil fumarate (TDF). Cohort 1: a cross sectional study of 10 HIV positive subjects with undetectable HIV viral loads on a TDF-based regimen; Cohort 2: a single dose study of Truvada in 10 healthy subjects to evaluate TFV clearance in plasma and urine over 7 days; Cohort 3: a 16 week study of 10 HIV negative subjects receiving daily PrEP to evaluate concordance between plasma and urine over time.
(§2) A semi-quantitative liquid chromatography-tandem mass spectrometry (LC-MS/MS) urine assay was developed for detection of TFV with high sensitivity/specificity. […] To evaluate the qualitative relationship of urine TFV levels to plasma levels, the levels of TFV in the urine and plasma from Cohort 1 was evaluated. […] In addition, the TFV concentration was 3-4 logs higher in urine than plasma (FIG. 2). In cohort 2, TFV was detected for >7 days in urine and 2-4 days in plasma after a single dose of Truvada™ (FIG. 3). […]
(§3) A semi-quantitative liquid chromatography-tandem mass spectrometry (LC-MS/MS) urine assay with high sensitivity and specificity for TFV allowed us to determine TFV concentrations in log categories between <10 ng/L to >10,000 ng/mL. […]

[2] = in vivo; cited from earlier work
[3] = in vivo; cited from earlier work; remark: listed apart in the source
[4] = human, in vivo
Experimental: as §1, §2, §3

[5] = Cohort 2: single dose of Truvada in healthy subjects, TFV clearance in plasma and urine over 7 days (LC-MS/MS); assay type: in vivo, human
Experimental: as §1
A semi-quantitative liquid chromatography-tandem mass spectrometry (LC-MS/MS) urine assay was developed for detection of TFV with high sensitivity/specificity. […] To evaluate the qualitative relationship of urine TFV levels to plasma levels, the levels of TFV in the urine and plasma from Cohort 1 was evaluated. […] In addition, the TFV concentration was 3-4 logs higher in urine than plasma (FIG. 2). In cohort 2, TFV was detected for >7 days in urine and 2-4 days in plasma after a single dose of Truvada™ (FIG. 3). […] The urine assay was 2 logs more sensitive than serum over 7 days (FIG. 3).
A semi-quantitative liquid chromatography-tandem mass spectrometry (LC-MS/MS) urine assay with high sensitivity and specificity for TFV allowed us to determine TFV concentrations in log categories between <[…] to >10,000 ng/mL. Following protein precipitation (0.1 mL human plasma or urine or diluted urine sample) using 100% acetonitrile with 0.1% formic acid, containing deuterated internal standard (2H6-tenofovir, 50 ng/mL), the analytes were separated using gradient mobile phase on a reverse phase C18 column and analyzed by MS/MS (AB Sciex API4000). The multiple reaction monitoring of m/z 288.3 to 176.3 for tenofovir and m/z 294.3 to 182.2 for 2H6-tenofovir was used for analysis. […] Flow rate was 0.7 ml/min and total chromatographic run-time was 3.0 minutes/sample.
Standards (10, 100, 1000 and 10,000 ng/mL in human plasma), blanks (double blank and internal standard blank) and unknown plasma and urine samples were thawed to room temperature. One hundred μL of all standards and blanks were put into appropriate wells on a 96 well plate. Diluted unknown urine samples (95 μL blank plasma +5 μL of unknown urine samples, 20-fold dilution) or undiluted plasma samples were mixed with 400 μL of IS solution in a 96 well plate. The plate was vortexed for 30 seconds at high speed and centrifuged for 30 minutes at 4000 rpm. Supernatant was transferred to a fresh 96 well plate and a 10 μL aliquot was injected for LC-MS/MS analysis from autosampler. […] When the concentration of TFV in urine samples exceeded 1,000 ng/mL, samples were diluted 50-fold with blank urine and reanalyzed.

HIV = settings: Anderson 2012; cited from earlier work

| Structure (SMILES) | HIV-1 risk reduction corresponding to intracellular tenofovir concentration (HIV-1; 2 doses per week) | HIV-1 risk reduction corresponding to intracellular tenofovir concentration (HIV-1; 4 doses per week) | HIV-1 risk reduction corresponding to intracellular tenofovir concentration (HIV-1; 7 doses per week) | plasma samples with TFV detected [1] | urine samples with TFV detected [1] | window of exposure reflected by single plasma concentrations [2] | intracellular half-life [3] | plasma half-life [3] | TFV concentration higher in urine than plasma [4] | time TFV detected in plasma ([5]; after a single dose of Truvada) | time TFV detected in urine ([5]; after a single dose of Truvada) | urine TFV clearance pattern ([5]; after a single dose of Truvada, over 7 days) | window of medication usage reflected by TFV detection in urine ([5]; after oral TDF/FTC ingestion, preliminary data) | intracellular concentration associated with a 90% reduction in HIV acquisition relative to the placebo arm (HIV) |
| --- | --- | --- | --- | --- | --- | --- | --- | --- | --- | --- | --- | --- | --- | --- |
| C[C@H](Cn1cnc2c(N)ncnc21)OCP(=O)(O)O [TFV, Tenofovir] | 76% | 96% | 99% | 74% | 93% | 2 to 3 days | 150 h | 17 h | 3-4 logs | 2 to 4 days | > 7 days | cleared in a log-linear fashion | one to at least seven days |  |
| CC(Cn1cnc2c(N)ncnc21)OCP(=O)(O)OP(=O)(O)OP(=O)(O)O (stereo in doubt) [tenofovir-diphosphate] |  |  |  |  |  |  |  |  |  |  |  |  |  | 16 fmol per million peripheral blood mononuclear cells (PBMCs) |
